Data: paper PMC3468400, “Pharmacokinetic profiles of artesunate following multiple intravenous doses of 2, 4, and 8 mg/kg in healthy volunteers: Phase 1b study” (Malaria Journal, 2012)
Read-outs that look alike come from different tables or passages of the source.

What was measured:
[1] = test system: severe falciparum malaria; details: SEAQUAMAT, cited from earlier work
[2] = Tolerability and safety of multiple intravenous AS doses in healthy volunteers; type: in vivo, human
Method: The study was a double blind, ascending multiple doses, alternating group, safety, tolerance, and PK study. Injectable AS daily for three days was administered intravenously to three groups of the subjects using alternating doses of 2, 4, and 8 mg. All eight subjects in each dose group received either the AS (six subjects) or placebo (two subjects) in a pre-randomized manner. The study physician, after verifying the code with a study nurse, would then inject either the drug or placebo into an injection port at the pre-measured dose over about 2 min as a short-term intravenous infusion; the study nurse recorded the time of study drug reconstitution, infusion start and completion of injection. When the injection was completed, the study nurse recorded tolerance of injection to include both inspection of site and subjects’ responses. Subjects were provided a light lunch at approximately 4 hours after dosing. Normal activities, excluding strenuous exercise, were permitted four hours after dosing. […] During the multiple-dose period, samples were collected immediately before morning dose on days 2 and 3 for additional trough values. All the samples were stored at −80 °C until shipment and were then shipped to a bio-analytical GLP laboratory, Midwest Research Institute (MRI), in Kansas City, MO, USA. The human use protocol numbers for the Phase 1 trial are: USUHS #G183RW; WRIAR #1128; and HSRRB #A-13276.

[3] = Pharmacokinetics of artesunate (AS) in plasma after multiple intravenous doses, compartmental analysis (Phase 1b); type: in vivo, human; details: for Total AUCD1-D3: days 1-3; for half-life / AUC(0-inf) / Cmax / clearance / MRT / AUC: iv; for clearance: read-out: CL_obs; for AUC: 2-8 mg/kg iv, read-out: Mean AUC of AS, range over doses
Method: The study was a double blind, ascending multiple doses, alternating group, safety, tolerance, and PK study. […] When the injection was completed, the study nurse recorded tolerance of injection to include both inspection of site and subjects’ responses. Subjects were provided a light lunch at approximately 4 hours after dosing. Normal activities, excluding strenuous exercise, were permitted four hours after dosing. […] During the multiple-dose period, samples were collected immediately before morning dose on days 2 and 3 for additional trough values. All the samples were stored at −80 °C until shipment and were then shipped to a bio-analytical GLP laboratory, Midwest Research Institute (MRI), in Kansas City, MO, USA. The human use protocol numbers for the Phase 1 trial are: USUHS #G183RW; WRIAR #1128; and HSRRB #A-13276.
The analytes were extracted from human plasma with ethyl acetate. […] The reconstituted extracts were analysed on a Micromass Quattro II Mass Spectrometer in the positive ion electrospray ionization (+ESI) mode. […] This method employed a Varian Pursuit C18 column (150 x 2.0 mm, 5-μm particle size) and a gradient elution with the following mobile phases: A: 10 mM ammonium acetate in water with 1% formic acid and B: 10 mM ammonium acetate in acetonitrile with 1% formic acid, for the chromatographic separation.
Calibration standards and QC samples were analysed to evaluate the performance of the assay.
Compartmental (model-dependent) and non-compartment (model-independent) PK analysis are common methods to determine PK parameters, which are acceptable by FDA [21]. In order to compare only the clinically relevant concentrations, the compartmental PK analysis was selected for PK analysis in this study and based on a short-term (2 min) intravenous infusion in accordance with a previous PK evaluation. […] The input of the drug was assumed to follow zero-order kinetics, and elimination from the central compartment occurred with first-order kinetics. Compartmental analysis of concentration-time data for parent drug was performed using the WinNonlin software with an intravenous infusion program. The first-order method with logarithmic transformation of all drug-concentration data was used throughout.
The drug plasma concentrations at the end of an intravenous (IV) infusion (Cmax) were calculated from the corresponding model equations (IV-infusion model, WinNonlin) at the respective time points. The AUC(0-t) (where t = the time point for the last sample on the PK profile in which quantifiable drug was detected) was estimated using linear or linear/log trapezoidal calculations. […] A drug accumulation index was estimated from the AUC values on day 3 (last multiple dose administration) divided by the AUC on day 1 (first multiple dose administration).

[4] = human, in vivo, cited from earlier work
[5] = test system: parasitaemia; details: cited from earlier work
[6] = test system: severe falciparum malaria; details: AQUAMAT, cited from earlier work
[7] = severe malaria patients, intravenous treatment
[8] = 2, 4, 8 mg/kg iv daily for three days
[9] = human, plasma, 2 mg/kg, Day 1, AS 2 mg/kg iv daily for 3 days, 2 min infusion, mean (CV%), n = 6, CA
[10] = human, plasma, 2 mg/kg, Day 2, AS 2 mg/kg iv daily for 3 days, 2 min infusion, mean (CV%), n = 6, CA
[11] = human, plasma, 2 mg/kg, Day 3, AS 2 mg/kg iv daily for 3 days, 2 min infusion, mean (CV%), n = 6, CA
[12] = human, plasma, 4 mg/kg, Day 1, AS 4 mg/kg iv daily for 3 days, 2 min infusion, mean (CV%), n = 6, CA
[13] = human, plasma, 4 mg/kg, Day 2, AS 4 mg/kg iv daily for 3 days, 2 min infusion, mean (CV%), n = 6, CA
[14] = human, plasma, 4 mg/kg, Day 3, AS 4 mg/kg iv daily for 3 days, 2 min infusion, mean (CV%), n = 6, CA
[15] = human, plasma, 8 mg/kg, Day 1, AS 8 mg/kg iv daily for 3 days, 2 min infusion, mean (CV%), n = 6, CA
[16] = human, plasma, 8 mg/kg, Day 2, AS 8 mg/kg iv daily for 3 days, 2 min infusion, mean (CV%), n = 6, CA
[17] = human, plasma, 8 mg/kg, Day 3, AS 8 mg/kg iv daily for 3 days, 2 min infusion, mean (CV%), n = 6, CA

C[C@H]1[C@H](OC(=O)CCC(=O)O)O[C@@H]2O[C@@]3(C)CC[C@H]4[C@H](C)CC[C@@H]1[C@@]24OO3 [AS, 4-(10’dihydro-artemisinin-oxymethyl) succinate]
mortality rate [1, 7]: 15% | reduction of mortality versus quinine [1]: 35% | dose dependence of adverse events [2, 8]: no dose-dependent increases in any adverse events | haemodynamic or ECG effects [2, 8]: No deleterious haemodynamic or ECG effects were seen | other laboratory abnormalities [2, 8]: no other clinically significant laboratory abnormalities detected | duration of transient sensation of altered or unusual taste ([2]; associated with higher doses of AS, all cases): less than 30 minutes | tolerability ([2]; daily iv for three days, doses up to 8 mg/kg, healthy volunteers): well tolerated and no serious side effects were observed and safe | reticulocyte count ([2]; peaked four days after dosing, returned to normal by study day 7 in most cases, day 10 in all): dose-related decrease | Tmax ([3]; Day 1, AS 2 mg/kg iv daily for 3 days, 2 min infusion, n = 6, CA): 2 min | Tmax ([3]; Day 1, AS 4 mg/kg iv daily for 3 days, 2 min infusion, n = 6, CA): 2 min | Tmax ([3]; Day 1, AS 8 mg/kg iv daily for 3 days, 2 min infusion, n = 6, CA): 2 min | Tmax ([3]; Day 3, AS 2 mg/kg iv daily for 3 days, 2 min infusion, n = 6, CA): 2 min | Tmax ([3]; Day 3, AS 4 mg/kg iv daily for 3 days, 2 min infusion, n = 6, CA): 2 min | Tmax ([3]; Day 3, AS 8 mg/kg iv daily for 3 days, 2 min infusion, n = 6, CA): 2 min | peak concentrations of AS, range ([3]; all days, 2, 4, 8 mg/kg iv doses): 16,487-74,588 ng/ml | Total AUCD1-D3 ([3]; AS 2 mg/kg iv daily for 3 days, mean (CV%), n = 6): 4731 (40) ng·h/ml | Total AUCD1-D3 ([3]; AS 4 mg/kg iv daily for 3 days, mean (CV%), n = 6): 10787 (17) ng·h/ml | Total AUCD1-D3 ([3]; AS 8 mg/kg iv daily for 3 days, mean (CV%), n = 6): 18606 (45) ng·h/ml | half-life ([3]; human, in vivo, 2 mg/kg, Day 1, AS 2 mg/kg iv daily for 3 days, 2 min infusion, mean (CV%), n = 6, CA, read-out: t1/2 elimination (converted)): 9.6 min | half-life ([3]; human, in vivo, 2 mg/kg, Day 2, AS 2 mg/kg iv daily for 3 days, 2 min infusion, mean (CV%), n = 6, CA, read-out: t1/2 elimination (converted)): 11.4 min | half-life ([3]; human, in vivo, 2 mg/kg, Day 3, AS 2 mg/kg iv daily for 3 days, 2 min infusion, mean (CV%), n = 6, CA, read-out: t1/2 elimination (converted)): 9 min | half-life ([3]; human, in vivo, 4 mg/kg, Day 1, AS 4 mg/kg iv daily for 3 days, 2 min infusion, mean (CV%), n = 6, CA, read-out: t1/2 elimination (converted)): 12.6 min | half-life ([3]; human, in vivo, 4 mg/kg, Day 2, AS 4 mg/kg iv daily for 3 days, 2 min infusion, mean (CV%), n = 6, CA, read-out: t1/2 elimination (converted)): 13.8 min | half-life ([3]; human, in vivo, 4 mg/kg, Day 3, AS 4 mg/kg iv daily for 3 days, 2 min infusion, mean (CV%), n = 6, CA, read-out: t1/2 elimination (converted)): 12 min | half-life ([3]; human, in vivo, 8 mg/kg, Day 1, AS 8 mg/kg iv daily for 3 days, 2 min infusion, mean (CV%), n = 6, CA, read-out: t1/2 elimination (converted)): 12 min | half-life ([3]; human, in vivo, 8 mg/kg, Day 2, AS 8 mg/kg iv daily for 3 days, 2 min infusion, mean (CV%), n = 6, CA, read-out: t1/2 elimination (converted)): 11.4 min | half-life ([3]; human, in vivo, 8 mg/kg, Day 3, AS 8 mg/kg iv daily for 3 days, 2 min infusion, mean (CV%), n = 6, CA, read-out: t1/2 elimination (converted)): 12 min | AUC(0-inf) [3, 9]: 2050 ng·h/mL | Cmax [3, 9]: 28400 ng/mL | clearance [3, 9]: 21.2 mL/min/kg | MRT ([3]; human, plasma, 2 mg/kg, Day 1, AS 2 mg/kg iv daily for 3 days, 2 min infusion, mean (CV%), n = 6, CA, read-out: MRT): 4.8 min | AUC(0-inf) [3, 10]: 1410 ng·h/mL | Cmax [3, 10]: 17900 ng/mL | clearance [3, 10]: 29.5 mL/min/kg | MRT ([3]; human, plasma, 2 mg/kg, Day 2, AS 2 mg/kg iv daily for 3 days, 2 min infusion, mean (CV%), n = 6, CA, read-out: MRT): 4.8 min | AUC(0-inf) [3, 11]: 1270 ng·h/mL | Cmax [3, 11]: 16500 ng/mL | clearance [3, 11]: 27.9 mL/min/kg | MRT ([3]; human, plasma, 2 mg/kg, Day 3, AS 2 mg/kg iv daily for 3 days, 2 min infusion, mean (CV%), n = 6, CA, read-out: MRT): 4.2 min | AUC(0-inf) [3, 12]: 4640 ng·h/mL | Cmax [3, 12]: 40600 ng/mL | clearance [3, 12]: 19.4 mL/min/kg | MRT ([3]; human, plasma, 4 mg/kg, Day 1, AS 4 mg/kg iv daily for 3 days, 2 min infusion, mean (CV%), n = 6, CA, read-out: MRT): 4.8 min | AUC(0-inf) [3, 13]: 2630 ng·h/mL | Cmax [3, 13]: 34400 ng/mL | clearance [3, 13]: 27.3 mL/min/kg | MRT ([3]; human, plasma, 4 mg/kg, Day 2, AS 4 mg/kg iv daily for 3 days, 2 min infusion, mean (CV%), n = 6, CA, read-out: MRT): 4.8 min | AUC(0-inf) [3, 14]: 3520 ng·h/mL | Cmax [3, 14]: 51200 ng/mL | clearance [3, 14]: 23 mL/min/kg | MRT ([3]; human, plasma, 4 mg/kg, Day 3, AS 4 mg/kg iv daily for 3 days, 2 min infusion, mean (CV%), n = 6, CA, read-out: MRT): 4.8 min | AUC(0-inf) [3, 15]: 6020 ng·h/mL | Cmax [3, 15]: 63700 ng/mL | clearance [3, 15]: 27.9 mL/min/kg | MRT ([3]; human, plasma, 8 mg/kg, Day 1, AS 8 mg/kg iv daily for 3 days, 2 min infusion, mean (CV%), n = 6, CA, read-out: MRT): 6 min | AUC(0-inf) [3, 16]: 6670 ng·h/mL | Cmax [3, 16]: 74600 ng/mL | clearance [3, 16]: 26.7 mL/min/kg | MRT ([3]; human, plasma, 8 mg/kg, Day 2, AS 8 mg/kg iv daily for 3 days, 2 min infusion, mean (CV%), n = 6, CA, read-out: MRT): 4.8 min | AUC(0-inf) [3, 17]: 5920 ng·h/mL | Cmax [3, 17]: 67600 ng/mL | clearance [3, 17]: 28.9 mL/min/kg | MRT ([3]; human, plasma, 8 mg/kg, Day 3, AS 8 mg/kg iv daily for 3 days, 2 min infusion, mean (CV%), n = 6, CA, read-out: MRT): 5.4 min | MRT ([3]; human, plasma, 8 mg/kg, range during three days of treatment, 2, 4, 8 mg/kg iv doses, read-out: mean residence time of AS, range): 4.2 to 4.8 min | half-life ([3]; human, plasma, 8 mg/kg, range of means over three days and 2, 4, 8 mg/kg iv doses, read-out: mean elimination half-life of AS, range): 9 to 13.8 min | AUC ([3]; human, plasma, day 1): 2050 to 6020 ng·h/mL | AUC ([3]; human, plasma, day 3): 1270 to 5920 ng·h/mL | Tmax ([3]; human, plasma, Day 2, AS 2 mg/kg iv daily for 3 days, 2 min infusion, n = 6, CA, read-out: Tmax (converted)): 2 min | Tmax ([3]; human, plasma, Day 2, AS 4 mg/kg iv daily for 3 days, 2 min infusion, n = 6, CA, read-out: Tmax (converted)): 2 min | Tmax ([3]; human, plasma, Day 2, AS 8 mg/kg iv daily for 3 days, 2 min infusion, n = 6, CA, read-out: Tmax (converted)): 2 min | mean peak level (Cmax) ([4]; iv): 11,343 ng/ml | Cmax ([4]; po): 1052 ng/mL | mean time for clearance of half the parasitaemia (PC50) ([5]; human, in vivo): 3.18 h | duration of the lag phase of the parasitaemia curve ([5]; intravenous AS, previous clinical trials): 1.92 h | lag time of the parasitaemia curve ([5]; oral AS, previous clinical trials): 2.81 h | mortality rate [6, 7]: 8.5% | reduction of mortality versus quinine [6]: 22.5%
